# Measured values from US10981932B2, “Macrocyclic indole derivatives” (Bayer Aktiengesellschaft, priority 2016, dated 2021).
# Where “and” joins values, the source holds several entries; their conditions need not be identical. Equal entries are not always repeated. Structures can show the parent of a compound that is named as a salt. Where two headings read alike, the source gives them in different places.
# What was measured:
# [1] = biological target: T1, BCL-2 (Homo sapiens, UniProt P10415); test: Protein-protein interaction assay BCL-2/Bad BH3 peptide (BCL-2 assay), TR-FRET; type: binding; conditions: His-BCL-2 / Bad BH3-derived peptide, median
# T1 construct: BCL-2 (amino acids 1-211, C-terminal fused to a hexahistidine (6×His) tag); purchased BPS Bioscience (San Diego, Calif., USA); host or cells: E. coli
# T1 sequence (P10415 1-211): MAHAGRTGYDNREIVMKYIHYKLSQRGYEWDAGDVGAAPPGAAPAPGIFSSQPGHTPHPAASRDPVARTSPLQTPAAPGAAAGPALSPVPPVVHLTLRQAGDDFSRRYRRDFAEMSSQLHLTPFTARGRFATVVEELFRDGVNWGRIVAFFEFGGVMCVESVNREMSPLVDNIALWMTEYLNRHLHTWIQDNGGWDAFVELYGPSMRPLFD
# Protocol: Protein-Protein Interaction Assay: BCL-2/Bad BH3 Peptide (BCL-2 Assay)
# The dose-dependent inhibition by the compounds described in this invention of the interaction between BCL-2 and the BH3 domain of Bad (both human) was determined using a steady state binding competition assay with time-resolved fluorescence energy transfer (TR-FRET) readout. For that purpose BCL-2 (amino acids 1-211, C-terminal fused to a hexahistidine (6×His) tag and a synthetic Bad BH3-derived peptide of sequence Biotin-PEG2-PEG2-NLWAAQRYGRELRR-Nle-SDEFVDSFKK-amide (SEQ ID NO: 2) served as protein receptor and tracer ligand respectively. The recombinant BCL-2 protein (expressed in E. coli) was purchased from BPS Bioscience (San Diego, Calif., USA). The Bad BH3-derived peptide can be obtained from e.g. Biosyntan (Berlin, Germany).
# In the assay 11 different concentrations of each compound (0.1 nM, 0.33 nM, 1.1 nM, 3.8 nM. 13 nM, 44 nM, 0.15 μM, 0.51 μM, 1.7 μM, 5.9 μM and 20 μM) were typically measured as duplicates in the same microtiter plate. For that, 100-fold concentrated DMSO solutions were prepared by serial dilutions (1:3.4) of a 2 mM stock solution in a clear, 384-well microtiter plate (Greiner Bio-One, Frickenhausen, Germany). From there, 50 nl were transferred in a dark test plate (Greiner Bio-One. Frickenhausen, Germany). The assay was initiated by addition of 2 μl of a 2,5-fold concentrated His-BCL-2 solution (usually for a 1 nM end concentration in 5 μl reaction volume) in aqueous assay buffer [50 mM Tris/HCl pH 7, 100 mM sodium chloride (NaCl), 50 mM potassium fluoride (KF), 0.005% Tween-20, 2 mM DTT, 0.1% bovine gamma globulin (BGG)] to the compounds in the assay plate. This was followed by a 10-minute incubation step at 22° C. for pre-equilibration of the putative complex between His-BCL-2 and the compounds.
# The mixture was incubated in the dark for one hour at 22° C. and then overnight at 4° C. The formation of BCL-2/Bad complexes was determined by measuring the resonance energy transfer of the anti-His-Eu-cryptate antibody to the streptavidin-XL665 present in the reaction. For that purpose, the fluorescence emission at 620 nm and 665 nm after excitation at 330-350 nm was measured in a TR-FRET measuring instrument, for instance a Rubystar or a Pherastar (both from BMG Lab Technologies. Offenburg, Germany) or a Viewlux (Perkin-Elmer). The ratio of the emission at 665 nm and at 622 nm was used as indicator of the amount of BCL-2/Bad complexes present.
# The resulting data (ratio) were normalized, taking 0% inhibition as the mean value of control measurements (usually 32 data points) where all reagents were included. In this case 50 nl DMSO were used instead of compounds. A 100% inhibition corresponded to the mean value of control measurements (usually 32 data points) where all reagents except BCL-2 were included. IC50 values were determined by regression analysis based on a 4 parameter equation (minimum, maximum, IC50, Hill; Y=Max+(Min−Max)/(1+(X/IC50)^Hill) using the Screener Software (Genedata).
# [2] = system: SUDHL5; test: Induction of caspase-3/7 activity (Caspase-Glo 3/7), SUDHL5; type: cell-based; conditions: caspase-3/7 induction, SUDHL5 cells, 3 h treatment, median
# Summary of the method: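 A 3 h, 37 °C compound incubation precedes the Caspase-Glo 3/7 read. After subtracting medium-only signal, EC50s are fitted against the reference compound's maximal caspase induction.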
# [3] = system: SUDHL5; test: Anti-proliferative effect (CellTiter-Glo, 72 h), SUDHL5; type: cell-based; conditions: SUDHL5 cells, antiproliferation, 72 h incubation, median, read-out: Antiproli SUDHL5 [M] (median)
# Summary of the method: (§1)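 Plate cells alongside a separate day 0 reference plate. Read the reference plate at once with CellTiter-Glo. Incubate treated cells 72 h at 37 °C, then read them the same way by luminescence.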
# [4] = system: SUDHL10; test: Anti-proliferative effect (CellTiter-Glo, 72 h), SUDHL10; type: cell-based; conditions: SUDHL10 cells, antiproliferation, 72 h incubation, median, read-out: Antiproli SUDHL10 [M] (median)
# Summary of the method: as §1
# [5] = system: A2780; test: Anti-proliferative effect (CellTiter-Glo, 72 h), A2780; type: cell-based; conditions: A2780 cells, median, read-out: IC50 antiproliferation assay A2780 [M] (median)
# Summary of the method: as §1
SMILES,IC50 [1] [µM],"EC50 ([2]; Homo sapiens, SU-DHL-5, 3 h) [µM]","IC50 ([3]; Homo sapiens, SU-DHL-5, 72 h) [M]","IC50 ([4]; Homo sapiens, SU-DHL10, 72 h) [M]","IC50 ([5]; Homo sapiens, A2780, 72 h) [M]",EC50 [2] [µM],IC50 [3] [M],IC50 [4] [M],IC50 [5]
"Cc1nn(C)c2c1-c1cccc3c(CCCOc4cccc5cc(F)ccc45)c(C(=O)O)n(c13)CCCOC2 (single isomer, unassigned; enantiomer 1) [Example 047, 1-{3-[(6-fluoronaphthalen-1-yl)oxy]propyl}-9,11-dimethyl-5,6,8,9-tetrahydro-4H-pyrazolo[4′,3′:8,9][1,5]oxazecino[7,6,5-hi]indole-2-carboxylic acid-N-ethylethanamine Salt (Enantiomer 1)]",> 20,–,–,–,–,2.96,4.41e-06,3.61e-06,2.69e-05 M
"Cc1nn(C)c2c1-c1cccc3c(CCCOc4cccc5ccccc45)c(C(=O)O)n(c13)CCCN(C)C2 (single isomer, unassigned; enantiomer 1) [Example 1-31, 7,9,11-trimethyl-1-[3-(naphthalen-1-yloxy)propyl]-4,5,6,7,8,9-hexahydropyrazolo[3′,4′:7,8][1,5]diazecino[9,10,1-hi]indole-2-carboxylic Acid-N-ethylethanamine Salt (Enantiomer 1)]",> 20,–,–,–,> 3.3e-05,4.33,3.12e-06,4.55e-06,–
"COCCn1nc2c(c1C1CC1)-c1cccc3c(CCCOc4cccc5ccccc45)c(C(=O)O)n(c13)CCCCOC2 (single isomer, unassigned; enantiomer 1) [Example 085, 3-Cyclopropyl-2-(2-methoxyethyl)-7-[3-(naphthalen-1-yloxy)propyl]-2,10,11,12,13,15-hexahydropyrazolo[4′,3′:9,10][1,6]oxazacycloundecino[8,7,6-hi]indole-8-carboxylic acid-N-ethylethanamine Salt (Enantiomer 1)]",> 20,–,–,–,2.15e-05,3.59,6.22e-06,3.08e-06,–
"CC(C)c1c2c(nn1C)CN(C)CCCn1c(C(=O)O)c(CCCOc3cccc4ccccc34)c3cccc-2c31 (racemic) [Example 113, (rac)-7,10-dimethyl-1-[3-(naphthalen-1-yloxy)propyl]-11-(propan-2-yl)-4,5,6,7,8,10-hexahydropyrazolo[3′,4′:7,8][1,5]diazecino[9,10,1-hi]indole-2-carboxylic Acid]",> 20,–,–,6.99e-06,8.81e-06,–,–,–,–
"COCc1nn(C)c2c1-c1cccc3c(CCCOc4cccc5ccccc45)c(C(=O)O)n(c13)CCCN(C)C2 (single isomer, unassigned; enantiomer 2) [Example 1-104, 11-(methoxymethyl)-7,9-dimethyl-1-[3-(1-naphthyloxy)propyl]-4,5,6,7,8,9-hexahydropyrazolo[3′,4′:7,8][1,5]diazecino[9,10,1-hi]indole-2-carboxylic Acid (Enantiomer 2)]",> 20,–,–,–,–,4.96,3.62e-06,–,–
"Cc1nn(C)c2c1-c1cccc3c(CCCOc4cccc5cc(Cl)ccc45)c(C(=O)O)n(c13)CCCCOC2 (single isomer, unassigned; enantiomer 1) [Example 041, 7-{3-[(6-chloronaphthalen-1-yl)oxy]propyl}-1,3-dimethyl-1,10,11,12,13,15-hexahydropyrazolo[4′,3′:9,10][1,6]oxazacycloundecino[8,7,6-hi]indole-8-carboxylic acid-N-ethylethanamine Salt (Enantiomer 1)]",> 20,–,9.88e-06,–,1.81e-05,13.1,–,–,–

# The remaining lines, values ahead:
IC50 [1] [µM],"EC50 ([2]; Homo sapiens, SU-DHL-5, 3 h) [µM]","IC50 ([3]; Homo sapiens, SU-DHL-5, 72 h) [M]","IC50 ([4]; Homo sapiens, SU-DHL10, 72 h) [M]","IC50 ([5]; Homo sapiens, A2780, 72 h) [M]",EC50 [2] [µM],IC50 [3] [M],IC50 [4] [M],IC50 [5],SMILES
> 20,27.9,1.04e-05,1.21e-05,3.01e-05,–,–,–,–,"COCCn1nc2c(c1CN1CCOCC1)-c1cccc3c(CCCOc4cccc5ccccc45)c(C(=O)O)n(c13)CCCN(C)C2 (single isomer, unassigned; enantiomer 1) [Example 057, 10-(2-methoxyethyl)-7-methyl-11-(morpholin-4-ylmethyl)-1-[3-(naphthalen-1-yloxy)propyl]-4,5,6,7,8,10-hexahydropyrazolo[3′,4′:7,8][1,5]diazecino[9,10,1-hi]indole-2-carboxylic Acid (Enantiomer 1)]"
> 20,–,–,–,–,2.15,4.32e-06,9.57e-06,2e-05 M and > 3.3e-05 M,"Cc1nn(C)c2c1-c1cccc3c(CCCOc4ccc(F)c5ccccc45)c(C(=O)O)n(c13)CCCCOC2 (single isomer, unassigned; enantiomer 2) [Example 023, 7-{3-[(4-fluoronaphthalen-1-yl)oxy]propyl}-1,3-dimethyl-1,10,11,12,13,15-hexahydropyrazolo[4′3′:9,10][1,6]oxazacycloundecino[8,7,6-hi]indole-8-carboxylic acid-N-ethylethanamine Salt (Enantiomer 2)]"
> 20,–,–,1.03e-05,2.71e-05,2.83,3.38e-06,–,–,"Cc1c2c(nn1C1CC1)COCCCCn1c(C(=O)O)c(CCCOc3cccc4ccccc34)c3cccc-2c31 (single isomer, unassigned; enantiomer 1) [Example 093, 2-cyclopropyl-3-methyl-7-[3-(naphthalen-1-yloxy)propyl]-2,10,11,12,13,15-hexahydropyrazolo[4′,3′:9,10][1,6]oxazacycloundecino[8,7,6-hi]indole-8-carboxylic acid-N-ethylethanamine Salt (Enantiomer 1)]"
> 20,–,–,–,–,0.324,7.58e-07,1.38e-06,7.74e-06 M,"Cn1nc(COc2ccc(N3CCN(S(=O)(=O)C4CC4)CC3)cc2)c2c1COCCCCn1c(C(=O)O)c(CCCOc3cccc4ccccc34)c3cccc-2c31 (single isomer, unassigned; enantiomer 2) [Example 1-13, 3-({4-[4-(cyclopropylsulfonyl)piperazin-1-yl]phenoxy}methyl)-1-methyl-7-[3-(naphthalen-1-yloxy)propyl]-1,10,11,12,13,15-hexahydropyrazolo[4′,3′:9,10][1,6]oxazacycloundecino[8,7,6-hi]indole-8-carboxylic Acid (Enantiomer 2)]"
> 20,–,–,–,1.36e-05,0.889,1.85e-06,4.25e-06,–,"CCc1c2c(nn1C)CN(C)CCCn1c(C(=O)O)c(CCCOc3cccc4ccccc34)c3ccc(C)c-2c31 (single isomer, unassigned; enantiomer 1) [Example 145, 11-Ethyl-7,10,12-trimethyl-1-[3-(1-naphthyloxy)propyl]-4,5,6,7,8,10-hexahydropyrazolo[3′,4′:7,8][1,5]diazecino[9,10,1-hi]indole-2-carboxylic acid-N-ethylethanamine Salt (Enantiomer 1)]"
